{
  "source": "patent US20220160712A1",
  "about": "“METHODS OF TREATING RHEUMATOID ARTHRITIS AND FOR PREDICTING THE RESPONSE TO METHOTREXATE” (CHAN ZUCKERBERG BIOHUB, INC., priority 2020, published 2022)",
  "key": {"human gut microbiota": {"tested_on": "human gut microbiota", "test": "MTX treatment of gnotobiotic mice colonized with human stool; 16S-seq and qPCR of gut microbiota", "format": "in vivo", "conditions": "for gut microbial community structure, ANOSIM R: p=0.006; for shift in gut microbiota, ANOSIM R: Day 0 vs. 2"}, "[1]": {"tested_on": "B. theta and C. asparagiforme", "test": "Untargeted metabolomics of in vitro cultures", "format": "cell-based, Bacteroides thetaiotaomicron; Clostridium asparagiforme", "procedure": "As described in the in vitro bacterial growth studies, 48-hour overnight cultures were grown in an anaerobic chamber in liquid BHI+for the following isolates: Bacteroidetes thetaiotaomicron and Clostridium asparagiforme. Each subculture was diluted down to an OD600 of 0.08-0.1, which was then further diluted 100-fold, and then used to inoculate a 96-well 2-ml deep well plate with 100 μg/ml MTX (n=6 replicates per isolate) (Sigma, Cat #M9929) or DMSO (n=2 replicates per isolate). After 24 hours, aliquots were removed, centrifuged on a tabletop centrifuge at 4° C. for 5 minutes at ˜2000 rcf, and supernatant was prepared for extraction and untargeted LC-MS as described.\nExtraction was done in 96 well plates. In brief, 60 μL of the supernatant from the 96 well culture plate was added to 120 μL of pre-cooled methanol/acetonitrile (1:1, v/v) in a non-sterile 96 well plate. The samples were then incubated at −20° C. for 1 hour. After incubation, samples were mixed at 4° C. at 650 rpm using small block tube shaker. The plates were then centrifuged at 3000 rpm for 10 minutes. After centrifugation, using multi-channel pipette, 80 μL of supernatant from each well was transferred to non-sterile 96 well polypropylene plate and then sealed with pre-slit silicone mat. A 1:1:1 mix of LC-MS grade H2O, LC-MS grade acetonitrile and LC-MS grade methanol was used as blank.\nSamples (5 μl) were separated by hydrophilic interaction chromatography HPLC using a Vanquish UHPLC system (Thermo Fisher Scientific, Waltham, MA) with a Waters (Milford, MA) Acquity UPLC BEH Amide Column (2.1×100 mm×1.7 μm particle size) maintained at 65° C. and a 17 minute gradient, at a flow rate of 400 μl/min. […]\nThe raw data were converted into mzML format using ProteoWizard v3.0. Converted HILIC files were then analyzed using MS-DIAL v4.16 for deconvolution, peak detection, alignment, and identification (Parameters file can be provided upon request). […]"}, "[2]": {"test": "Targeted LC-MS for MTX in RA donor stool samples used for fecal transplant", "parameters": "species or system human", "conditions": "limit of quantification 100 nM"}, "[3]": {"conditions": "Donor 2, individually housed mice, MTX 50 mg/kg"}, "[4]": {"conditions": "combined gnotobiotic experiments, multi-factor design, padj<0.05, DESeq"}, "[5]": {"conditions": "MTX 100 μg/ml, 24 hours, padj<0.01, two-factor ANOVA with BH correction"}},
  "data": [
    {"smiles": "CN(Cc1cnc2nc(N)nc(N)c2n1)c1ccc(C(=O)N[C@@H](CCC(=O)O)C(=O)O)cc1", "note": "[MTX, methotrexate]", "values": [
      {"measurement": "Total colonization (16S copy number per gram stool)", "setting": "human gut microbiota; Donor 1 (healthy) humanized mice, oral vehicle, 1 mg/kg or 50 mg/kg MTX, 4 days", "result": "comparable between groups"},
      {"measurement": "microbial richness (number of ASVs)", "setting": "human gut microbiota; Donor 1 humanized mice, oral vehicle, 1 mg/kg or 50 mg/kg MTX, 4 days", "result": "comparable between groups"},
      {"measurement": "number of low-dose ASVs also altered in a consistent direction in the high-dose group", "setting": "human gut microbiota; Donor 1 mice, 1 mg/kg and 50 mg/kg", "result": 19},
      {"measurement": "gut microbial community structure, ANOSIM R", "setting": "human gut microbiota; Donor 1 mice, after 1 day of treatment", "result": 0.60},
      {"measurement": "gut microbial community structure, ANOSIM R", "setting": "human gut microbiota; Donor 1 mice, final day of treatment", "result": 0.75},
      {"measurement": "number of bacterial genera altered", "setting": "human gut microbiota; Donor 1 mice, high-dose MTX 50 mg/kg", "result": 14},
      {"measurement": "Bacteroidetes phylum compared to vehicle controls", "setting": "human gut microbiota; Donor 1 mice, high-dose MTX 50 mg/kg oral, Day 4 DESeq padj=0.001", "result": "significantly decreased"},
      {"measurement": "number of amplicon sequence variants (ASVs) altered", "setting": "human gut microbiota; Donor 1 mice, high-dose MTX 50 mg/kg, DESeq padj<0.01, Day 4", "result": 81},
      {"measurement": "number of ASVs significantly altered", "setting": "human gut microbiota; Donor 1 mice, low-dose MTX 1 mg/kg", "result": 26},
      {"measurement": "Bacteroidetes longitudinal trend, slope (generalized linear mixed-effects model)", "setting": "human gut microbiota; Donor 1 mice, p=0.007", "result": "−0.066"},
      {"measurement": "Microbial richness", "setting": "human gut microbiota; Donor 2 (treatment naive RA patient), individually housed mice, MTX 50 mg/kg, p=0.4", "result": "comparable between groups"},
      {"measurement": "number of ASVs with changed abundance", "setting": "human gut microbiota; [3]", "result": 23},
      {"measurement": "number of genera with changed abundance", "setting": "human gut microbiota; [3]", "result": 8},
      {"measurement": "phylum level changes", "setting": "human gut microbiota; [3]", "result": "No phylum level changes were detected"},
      {"measurement": "ASV23 (Bacteroides faecichinchillae/faecis/finegoldii/thetaiotaomicron) abundance", "setting": "human gut microbiota; Donor 2, individually housed mice, high-dose MTX (FIG. 7B)", "result": "reduced"},
      {"measurement": "ASV296 (Lachnoclostridium) abundance", "setting": "human gut microbiota; Donor 2, individually housed mice, high-dose MTX (FIG. 7C)", "result": "reduced"},
      {"measurement": "Dielma fastidiosa (ASV72) abundance", "setting": "human gut microbiota; Donor 2, individually housed mice, high-dose MTX (FIG. 7D)", "result": "decreased"},
      {"measurement": "ASV908 (Paraprevotella) abundance", "setting": "human gut microbiota; Donor 2, individually housed mice, high-dose MTX (FIG. 7E)", "result": "increased"},
      {"measurement": "number of ASVs with consistent shifts overlapping between route and rescue", "setting": "human gut microbiota; Donor 3 mice, MTX 50 mg/kg", "result": 41},
      {"measurement": "shift in gut microbiota, ANOSIM R", "setting": "human gut microbiota; Donor 3 mice, rescue experiment (oral MTX with or without folic acid), p=0.002", "result": 0.99},
      {"measurement": "shift in gut microbiota, ANOSIM R", "setting": "human gut microbiota; Donor 3 mice, route experiment (oral or IP MTX 50 mg/kg), p=0.007", "result": 0.89},
      {"measurement": "number of ASVs differentially abundant", "setting": "human gut microbiota; [4]", "result": 61},
      {"measurement": "number of genera differentially abundant", "setting": "human gut microbiota; [4]", "result": 31},
      {"measurement": "number of phyla differentially abundant", "setting": "human gut microbiota; [4]", "result": "Four"},
      {"measurement": "a-diversity", "setting": "human gut microbiota; combined gnotobiotic experiments, p>0.05, ANOVA", "result": "not affected"},
      {"measurement": "levels of AMP, adenine, hypoxanthine and guanine relative to vehicle control", "setting": "[1]; C. asparagiforme, 24 hours of treatment, AMP decreased, the rest increased, Wilcoxon rank sum", "result": "these differences were not statistically significant"},
      {"measurement": "number of metabolic features that changed similarly in the two isolates", "setting": "[1]; [5]", "result": 418},
      {"measurement": "number of metabolic features that differed by species", "setting": "[1]; [5]", "result": 220},
      {"measurement": "MTX in pre-MTX and post-MTX stool samples from RA donors", "setting": "[2]", "result": "not detected"}
    ]}
  ]
}
